Legend:
[1] = biological target: T1, MIF (Homo sapiens, UniProt P14174); assay: MIF tautomerase activity assay (PP substrate, UV absorbance at 300 nm); type: biochemical; conditions: for IC50: PP as substrate, 10 min preincubation, read-out: IC50, inhibition of MIF tautomerase activity
T1 construct: made in house; host or cells: Escherichia coli BL21, pET-20b(p) plasmid
T1 sequence (P14174 2-115 limits assumed): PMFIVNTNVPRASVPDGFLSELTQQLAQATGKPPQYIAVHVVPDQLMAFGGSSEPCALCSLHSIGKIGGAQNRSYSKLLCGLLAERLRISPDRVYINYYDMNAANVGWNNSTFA
Description: Recombinant human MIF with a C-terminal His-tag was expressed and purified following methods published previously.[47] The inhibitory potency for MIF tautomerase activity of the 1-phenyl-1H-1,2,3-triazole-4-carboxamides was measured after pre-incubation with MIF. The MIF-catalyzed PP tautomerization was measured by the corresponding change in UV absorbance over the first 3 min of the reaction.[48] Initial screening of the inhibitory potency was performed at 10 μM inhibitor concentration.
Inhibition of the tautomerase activity and kinetics of MIF was measured using […] (PP) as a substrate. A stock solution was prepared by mixing PP in 50 mM ammonium acetate buffer and adjusted to pH 6.0 using 1.0 M NaOH to provide a concentration of 20 mM. This solution was incubated overnight at 37 °C to allow equilibration of the keto and enol forms and then stored at 4 °C. For the assay, MIF stock solution (10 μL, 70 μM) was diluted in 20 mL of the boric acid buffer (435 mM H3BO3, 1 mM EDTA, pH 6.2) to provide 35 nM solution. The enzyme activity was determined by premixing 192 μL of the MIF dilution with 8 μL of the inhibitors dissolved in DMSO (1 mM). This mixture was preincubated for 10 min. Next, 50 μL of the mixture was mixed with 50 μL of 2 mM PP solution in ammonium acetate buffer. Subsequently, MIF tautomerase activity was monitored by the formation of the borate–enol complex, which was measured by the increase in UV absorbance at 300 nm. The increase in UV absorbance was measured over the first 10 min of incubation using a BioTek Synergy H1 Hybrid plate reader. MIF tautomerase activity in the presence of blank DMSO was set to 100% enzyme activity. […] Data from the first 3 min were used to calculate the initial velocities. All of the graphs were prepared in GraphPad Prism.
For the IC50 measurements, 1 mM solutions of the compounds were double-diluted 10 times in DMSO and subsequently, the MIF tautomerase activity was determined by premixing 190 μL of the MIF dilution with 10 μL of the inhibitors. This mixture was preincubated for 10 min and mixed with the 2 mM PP solution as described above.

[2] = test system: HeLa cells; assay: Cell viability (MTS) assay, MNNG-induced parthanatos; type: cell-based; conditions: MTS assay
[3] = biological target: MIF; parameters: method as in PMID 32940040; conditions: competitive MIF tautomerase inhibitor; cited from earlier work
[4] = 10 μM inhibitor, activity without inhibitor set to 100%, mean, n = 3

For `O=C(Nc1ccccc1)c1cn(-c2ccccc2)nn1` [Compound 6a, N,1-Diphenyl-1H-1,2,3-triazole-4-carboxamide], the remaining activity at 10 µM [1, 4] was 84%.
For `O=C(Nc1ccc(F)cc1)c1cn(-c2ccccc2)nn1` [Compound 6b, N-(4-Fluorophenyl)-1-phenyl-1H-1,2,3-triazole-4-carboxamide], the remaining activity at 10 µM [1, 4] was 65%.
Compound `O=C(Nc1ccc(Br)cc1)c1cn(-c2ccccc2)nn1` [Compound 6c, N-(4-Bromophenyl)-1-phenyl-1H-1,2,3-triazole-4-carboxamide] has a remaining activity at 10 µM [1, 4] of 37%.
Compound `COc1ccccc1-n1cc(C(=O)Nc2ccc(Cl)cc2)nn1` [Compound 6d, N-(4-Chlorophenyl)-1-(2-methoxyphenyl)-1H-1,2,3-triazole-4-carboxamide] has a remaining activity at 10 µM [1, 4] of 87%.
`COc1ccccc1-n1cc(C(=O)NC(C)c2ccc(Br)cc2)nn1` (centres unmarked) [Compound 6e, N-(1-(4-Bromophenyl)ethyl)-1-(2-methoxyphenyl)-1H-1,2,3-triazole-4-carboxamide] showed a remaining activity at 10 µM [1, 4] of 79%.
Compound `CCc1ccc(-n2cc(C(=O)Nc3cccc(F)c3)nn2)cc1` [Compound 6f, 1-(4-Ethylphenyl)-N-(3-fluorophenyl)-1H-1,2,3-triazole-4-carboxamide] has a remaining activity at 10 µM [1, 4] of 50%.
Compound `Cc1ccc(-n2cc(C(=O)Nc3ccc(F)cc3)nn2)cc1C` [Compound 6g, 1-(3,4-Dimethylphenyl)-N-(4-fluorophenyl)-1H-1,2,3-triazole-4-carboxamide] has a remaining activity at 10 µM [1, 4] of 54%.
In the case of `O=C(NCCc1ccccc1Cl)c1cn(-c2ccc(Cl)c(Cl)c2)nn1` [Compound 6h, N-(2-Chlorophenethyl)-1-(3,4-dichlorophenyl)-1H-1,2,3-triazole-4-carboxamide], the remaining activity at 10 µM [1, 4] is reported as 65%.
With `O=C(CCc1ccco1)NCc1cn(-c2ccc(Cl)c(Cl)c2)nn1` [Compound 6i] the remaining activity at 10 µM [1, 4] was 90%.
In the case of `COC(=O)C(Cc1ccccc1)NC(=O)c1cn(-c2ccc(Cl)c(Cl)c2)nn1` (centres unmarked) [Compound 6j, Methyl-(1-(3,4-dichlorophenyl)-1H-1,2,3-triazole-4-carbonyl)phenylalaninate], the remaining activity at 10 µM [1, 4] is reported as 58%.
With `O=C(NC1CCCC1)c1cn(-c2ccc(Cl)c(Cl)c2)nn1` [Compound 6k, N-Cyclopentyl-1-(3,4-dichlorophenyl)-1H-1,2,3-triazole-4-carboxamide] the remaining activity at 10 µM [1, 4] was 50%.
For `O=C(NCc1ccco1)c1cn(-c2ccc(Cl)c(Cl)c2)nn1` [Compound 6l, 1-(3,4-Dichlorophenyl)-N-(furan-2-ylmethyl)-1H-1,2,3-triazole-4-carboxamide], the remaining activity at 10 µM [1, 4] was 38%.
Work on `COc1ccc(CNC(=O)c2cn(-c3ccc(Cl)c(Cl)c3)nn2)cc1OC` [Compound 6m, 1-(3,4-Dichlorophenyl)-N-(3,4-dimethoxybenzyl)-1H-1,2,3-triazole-4-carboxamide] yielded a remaining activity at 10 µM [1, 4] of 80%.
In the case of `N#Cc1cc(Cl)ccc1-n1cc(C(=O)Nc2ccc(F)cc2)nn1` [Compound 6n, 1-(4-Chloro-2-cyanophenyl)-N-(4-fluorophenyl)-1H-1,2,3-triazole-4-carboxamide], the remaining activity at 10 µM [1, 4] is reported as 47%.
In the case of `CCc1ccc(NC(=O)c2cn(-c3ccc(F)cc3[N+](=O)[O-])nn2)cc1` [Compound 6p, N-(4-Ethylphenyl)-1-(4-fluoro-2-nitrophenyl)-1H-1,2,3-triazole-4-carboxamide], the remaining activity at 10 µM [1, 4] is reported as 45%.
`O=C(NCc1ccc(Cl)cc1)c1cn(-c2ccc(F)cc2)nn1` [Compound 6q, N-(4-Chlorobenzyl)-1-(4-fluorophenyl)-1H-1,2,3-triazole-4-carboxamide] showed a remaining activity at 10 µM [1, 4] of 58%.
In the case of `O=C(NCc1ccc(Cl)cc1)c1cn(-c2ccc(Cl)cc2)nn1` [Compound 6r, N-(4-Chlorobenzyl)-1-4-chlorophenyl-1H-1,2,3-triazole-4-carboxamide], the remaining activity at 10 µM [1, 4] is reported as 57%.
Work on `O=C(NCCc1ccccc1)c1cn(-c2cccc(Cl)c2)nn1` [Compound 6s, 1-(3-Chlorophenyl)-N-phenethyl-1H-1,2,3-triazole-4-carboxamide] yielded a remaining activity at 10 µM [1, 4] of 40%.
`O=C(NCCc1ccccc1Cl)c1cn(-c2cccc(Cl)c2)nn1` [Compound 6t, N-(2-Chlorophenethyl)-1-(3-chlorophenyl)-1H-1,2,3-triazole-4-carboxamide] gave a remaining activity at 10 µM [1, 4] of 66%.
For `O=C(NCCc1ccccc1)c1cn(-c2cccc3ncccc23)nn1` [Compound 6u, N-Phenethyl-1-(quinolin-5-yl)-1H-1,2,3-triazole-4-carboxamide], the remaining activity at 10 µM [1, 4] was 66%.
`Cc1ccc(-n2cc(C(=O)NCc3ccccc3)nn2)cc1C` [Compound 6v, N-Benzyl-1-(3,4-dimethylphenyl)-1H-1,2,3-triazole-4-carboxamide] gave a remaining activity at 10 µM [1, 4] of 21% and an IC50 [1] of 6500 ± 400 nM.
Compound `CC(NC(=O)c1cn(-c2ccc(C(=O)NC3CC3)cc2)nn1)c1ccccc1` (centres unmarked) [Compound 6w, 1-(4-(Cyclopropylcarbamoyl)phenyl)-N-(1-phenylethyl)-1H-1,2,3-triazole-4-carboxamide] has a remaining activity at 10 µM [1, 4] of 39%.
Compound `O=C(Nc1ccccc1)c1ccc(-n2cc(C(=O)NCc3ccccc3)nn2)cc1` [Compound 6x, N-Benzyl-1-(4-(phenylcarbomyl)phenyl)-1H-1,2,3-triazole-4-carboxamide] has a remaining activity at 10 µM [1, 4] of 14% and an IC50 [1] of 2500 ± 100 nM.
`COC(=O)CC1CC(c2ccc(O)cc2)=NO1` (centres unmarked) [ISO-1, reference compound] gave a remaining activity at 10 µM [1, 4] of 60%.
In the case of `COc1ccc(N2Cc3ccc(O)cc3OC2=O)cc1OC` [ZP143, reference compound], the “Protective effect in MNNG-induced parthanatos” value [2] is listed as “no protective effect” and the Ki [3] is listed as 100 ± 10 nM.
In the case of “N-(4-Bromophenyl)-1-(4-cyanophenyl)-1H-1,2,3-triazole-4-carboxamide [Compound 6o]”, the “Activity of MIF (%)” value [1, 4] is reported as 44%.
